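Following 48 hours of exposure in 96-well plates, responses at five concentrations were used to interpolate endpoints linearly. GI50 = concentration required for 50% inhibition of growth. The concentration for full growth arrest is given as TGI.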
Experiments:
Assay in all cases: inhibition of tumour cell growth, NCI panel, 48 h
NCI-H226 lung = tested on: NCI-H226 lung
RXF 393 renal = tested on: RXF 393 renal
HCC-2998 colon = tested on: HCC-2998 colon
SNB-75 CNS = tested on: SNB-75 CNS
DU-145 prostate = tested on: DU-145 prostate
A549 NSCLC = tested on: A549 NSCLC
SF-539 CNS = tested on: SF-539 CNS
SNB-19 CNS = tested on: SNB-19 CNS
UACC-62 melanoma = tested on: UACC-62 melanoma
SK-MEL-28 melanoma = tested on: SK-MEL-28 melanoma
IGROV1 ovarian = tested on: IGROV1 ovarian
ACHN renal = tested on: ACHN renal
CCRF-CEM leukemia = tested on: CCRF-CEM leukemia
RPMI-8226 leukemia = tested on: RPMI-8226 leukemia
OVCAR-8 ovarian = tested on: OVCAR-8 ovarian
KM12 colon = tested on: KM12 colon
SF-295 CNS = tested on: SF-295 CNS
UO-31 renal = tested on: UO-31 renal
SF-268 CNS = tested on: SF-268 CNS
HCT-15 colon = tested on: HCT-15 colon
786-0 renal = tested on: 786-0 renal
HOP-62 NSCLC = tested on: HOP-62 NSCLC
K-562 leukemia = tested on: K-562 leukemia
SK-MEL-5 melanoma = tested on: SK-MEL-5 melanoma
SK-MEL-2 melanoma = tested on: SK-MEL-2 melanoma
HT29 colon = tested on: HT29 colon
EKVX NSCLC = tested on: EKVX NSCLC
COLO 205 colon = tested on: COLO 205 colon
M14 melanoma = tested on: M14 melanoma

COc1ccc(/C=N/Nc2nc(N)nc(N3CCCC3)c2C#N)cc1
TGI (NCI-H226 lung): 30.6 µM
GI50 (RXF 393 renal): 10.2 µM
TGI (RXF 393 renal): 31.1 µM
GI50 (HCC-2998 colon): 8.59 µM
TGI (HCC-2998 colon): 26.1 µM
GI50 (SNB-75 CNS): 23.6 µM
TGI (SNB-75 CNS): 51.8 µM
GI50 (DU-145 prostate): 11.8 µM
TGI (DU-145 prostate): 32 µM
GI50 (A549 NSCLC): 13.4 µM
TGI (A549 NSCLC): 50.8 µM
GI50 (SF-539 CNS): 6.5 µM
TGI (SF-539 CNS): 21.8 µM
GI50 (SNB-19 CNS): 25.7 µM
TGI (SNB-19 CNS): 72.5 µM
GI50 (UACC-62 melanoma): 18.9 µM
TGI (UACC-62 melanoma): 38.4 µM
GI50 (SK-MEL-28 melanoma): 30.3 µM
TGI (SK-MEL-28 melanoma): 78.2 µM
GI50 (IGROV1 ovarian): 21 µM
TGI (IGROV1 ovarian): 44.4 µM
GI50 (ACHN renal): 17.4 µM
TGI (ACHN renal): 34.5 µM
GI50 (CCRF-CEM leukemia): 17.2 µM
TGI (CCRF-CEM leukemia): 49.2 µM
GI50 (RPMI-8226 leukemia): 14.1 µM
TGI (RPMI-8226 leukemia): 39 µM
GI50 (OVCAR-8 ovarian): 7.82 µM
TGI (OVCAR-8 ovarian): 47.2 µM
GI50 (KM12 colon): 24.8 µM
TGI (KM12 colon): 70.8 µM
GI50 (SF-295 CNS): 16.8 µM
TGI (SF-295 CNS): 36 µM
GI50 (UO-31 renal): 20.6 µM
TGI (UO-31 renal): 38.1 µM
GI50 (SF-268 CNS): 17.7 µM
TGI (SF-268 CNS): 42 µM
GI50 (HCT-15 colon): 17.2 µM
TGI (HCT-15 colon): 47.2 µM
GI50 (786-0 renal): 16.2 µM
TGI (786-0 renal): 31.2 µM
GI50 (HOP-62 NSCLC): 20.2 µM
TGI (HOP-62 NSCLC): 40.9 µM
GI50 (K-562 leukemia): 13 µM
TGI (K-562 leukemia): 28.7 µM
GI50 (SK-MEL-5 melanoma): 19.3 µM
TGI (SK-MEL-5 melanoma): 39 µM
GI50 (SK-MEL-2 melanoma): 21.4 µM
TGI (SK-MEL-2 melanoma): 46.1 µM
GI50 (HT29 colon): 34.7 µM
TGI (HT29 colon): > 100 µM
GI50 (EKVX NSCLC): 25.9 µM
TGI (EKVX NSCLC): 60.3 µM
GI50 (COLO 205 colon): 37.1 µM
TGI (COLO 205 colon): > 100 µM
GI50 (M14 melanoma): 17 µM
TGI (M14 melanoma): 36.5 µM

— PubChem BioAssay (NCI)
